Patent publication US5032505A, “Inhibitors for glycosaminosyl transferase V” (Chembiomed, Ltd., priority 1988, dated 1991)
Values belong to the compound of their own block, whether it stands above or below them.

Columns and labels:
GnT-V [1] = molecular target: T1, GnT-V (Mesocricetus auratus, UniProt A0A1U8C8T3); assay: GnT-V acceptor assay (transfer of GlcNAc from UDP-GlcNAc to synthetic acceptor); assay type: biochemical
T1 sequence (A0A1U8C8T3 1-740): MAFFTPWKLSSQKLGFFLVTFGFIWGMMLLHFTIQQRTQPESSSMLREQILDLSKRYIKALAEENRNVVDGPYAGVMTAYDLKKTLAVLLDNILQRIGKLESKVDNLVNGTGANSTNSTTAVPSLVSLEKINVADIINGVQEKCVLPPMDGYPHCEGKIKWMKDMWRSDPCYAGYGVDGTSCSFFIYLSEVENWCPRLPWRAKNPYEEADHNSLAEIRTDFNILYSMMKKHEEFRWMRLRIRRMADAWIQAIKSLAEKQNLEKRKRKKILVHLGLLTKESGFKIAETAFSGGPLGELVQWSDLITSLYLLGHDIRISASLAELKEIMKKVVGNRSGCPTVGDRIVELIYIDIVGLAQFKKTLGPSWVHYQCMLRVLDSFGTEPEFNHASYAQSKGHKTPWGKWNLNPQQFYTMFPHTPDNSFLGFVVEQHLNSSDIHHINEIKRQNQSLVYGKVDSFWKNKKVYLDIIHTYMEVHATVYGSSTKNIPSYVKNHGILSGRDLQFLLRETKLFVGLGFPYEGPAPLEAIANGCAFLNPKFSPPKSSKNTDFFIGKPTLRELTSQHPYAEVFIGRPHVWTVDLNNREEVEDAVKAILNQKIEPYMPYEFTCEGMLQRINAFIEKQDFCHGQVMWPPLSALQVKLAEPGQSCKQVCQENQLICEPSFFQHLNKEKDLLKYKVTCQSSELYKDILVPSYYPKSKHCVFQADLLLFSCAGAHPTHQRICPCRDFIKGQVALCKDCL
Procedure: One form of the assay is conducted by measuring the uptake of beta-GlcNAc from UDP-beta GlcNAc in the presence of the test extract by the acceptors of the invention. A variety of protocols to detect this uptake can be employed, including, for example, conjugation of the acceptor to a solid support and measuring the uptake of labeled beta-GlcNAc. An illustrative procedure is set forth, using as acceptor the trisaccharide 8-methoxycarbonyl octyl beta-GlcNAc(1-2)alpha-Man(1-6)beta-Man, in Pierce, M., et al, Biochem Biophys Res Commun (1987) 146:679-684, incorporated herein by reference. This procedure uses radiolabeled UDP-beta GlcNAc to provide a detection means for uptake of the substrate. Other protocols for measuring GnT-V using the acceptors of the invention can be adapted, for example, from the procedure used to measure the levels of GnT-V acceptor in EPO published application 134,292 to Abbott Laboratories.
The procedure for assaying GnT-V activity is described in Tahir, S.H., et al, Can J Chem (1986) 64:1771, cited above, and incorporated herein by reference. This procedure is also described in Palcic, M. M., et al, Glycoconjugate J (1988) 5:49, and in Hindsgual, O., et al, Carbohydrate Res (1988) 173:263, both incorporated herein by reference. The latter two citations describe the results of this assay using various synthetic acceptors.

GnT-V [2] = molecular target: T1, GnT-V; conditions: as acceptor for GnT-V; Palcic reference; read-out: apparent Km; cited from earlier work
B16 melanoma = conditions: literature; cited from earlier work
MDAY-D2 lymphoma cells = conditions: literature; cited from earlier work
tumor cells [3] = conditions: literature; cited from earlier work
tumor cells [4] = conditions: literature; cited from earlier work; remark: listed apart in the source

Compound: CCCCCCCCO[C@@H]1O[C@H]([C@@H](C)O[C@H]2O[C@H](CO)[C@@H](O)[C@H](O)[C@@H]2O[C@@H]2O[C@H](CO)[C@@H](O)[C@H](O)[C@H]2NC(C)=O)[C@@H](O)[C@H](O)[C@H]1O
- Vmax relative to the unmethylated analog (GnT-V [1]; as acceptor, assay of the Pierce reference): three times that of the unmethylated analog

Compound: COC(=O)CCCCCCCCO[C@@H]1O[C@H](CO[C@H]2O[C@H](CO)[C@@H](O)[C@H](O)[C@@H]2O[C@@H]2O[C@H](CO)[C@@H](O)[C@H](O)[C@H]2NC(C)=O)[C@@H](O)[C@H](O)[C@@H]1O [8-methoxycarbonyloctyl 6-O-[2-O-(2-acetamido-2-deoxy-beta-D-glucopyranosyl)-alpha-D-mannopyranosyl]-beta-D-mannopyranoside]
- Km (GnT-V [2]): 80 µM

- ability to act as an acceptor, relative to the remaining compounds (GnT-V [1]; relative to the other five octyl trisaccharide acceptors): about 25%
Compound: CC(=O)N[C@H]1[C@H](O[C@@H]2[C@@H](OCC3CCCCC3)O[C@H](CO)[C@@H](O)[C@@H]2O)O[C@H](CO)[C@@H](O)[C@@H]1O [Cyclohexylmethyl 6-O-[2-O-(2-acetamido-2-deoxy-beta-D-glucopyranosyl)-alpha-D-mannopyranoside]]

Compound: COC(=O)CCCCCCCCO[C@@H]1O[C@H](CO[C@H]2O[C@H](CO)[C@@H](O)[C@H](O)[C@@H]2O)[C@@H](O)[C@H](O[C@H]2O[C@H](CO)[C@@H](O)[C@H](O)[C@@H]2O)[C@@H]1O [GnT-1 Acceptor]
- entry into cells (Lec8 CHO Cells): has entered the cells to some extent after 3 hr and to a greater extent after 6

Compound: O[C@H]1[C@H](O)[C@@H](O)CN2CC[C@H](O)[C@H]12 [castanospermine]
- organ colonization by B16 melanoma (B16 melanoma): inhibit organ colonization by B16 melanoma

- effectiveness as an acceptor (GnT-V [1]; compared with the proR methylated compound): less effective as an acceptor
Compound: CCCCCCCCO[C@@H]1O[C@H]([C@H](C)O[C@H]2O[C@H](CO)[C@@H](O)[C@H](O)[C@@H]2O[C@@H]2O[C@H](CO)[C@@H](O)[C@H](O)[C@H]2NC(C)=O)[C@@H](O)[C@H](O)[C@H]1O [proS methylated compound]

Compound: O[C@H]1[C@H]2[C@H](O)CCCN2C[C@H]1O [swainsonine]
- colonization by metastatic MDAY-D2 lymphoma cells (MDAY-D2 lymphoma cells): inhibit colonization by metastatic MDAY-D2 lymphoma cells
- tumor cell growth rate in soft agar (tumor cells [3]): reduce tumor cell growth rate in soft agar
- organ colonization by B16 melanoma (B16 melanoma): inhibit organ colonization by B16 melanoma
- susceptibility of tumor cells to natural killer cells (tumor cells [4]): enhance susceptibility of tumor cells to natural killer cells

Compound: tunicamycin
- organ colonization by B16 melanoma (B16 melanoma): inhibit organ colonization by B16 melanoma
